Columns and labels:
[1] = tested on: TAMRA-(CUG)6 (RNA, repeat) CUGCUGCUGCUGCUGCUG; assay: fluorescence titration; conditions: PBS 1x (137 mM NaCl, 2.7 mM KCl); PBS pH 7.4, 20 °C; 20 nM RNA
MBNL1N, Cy3-labeled = target: T1, MBNL1N, Cy3-labeled (UniProt Q9NR56 1-253); assay: single-molecule TIRFM
T1 sequence: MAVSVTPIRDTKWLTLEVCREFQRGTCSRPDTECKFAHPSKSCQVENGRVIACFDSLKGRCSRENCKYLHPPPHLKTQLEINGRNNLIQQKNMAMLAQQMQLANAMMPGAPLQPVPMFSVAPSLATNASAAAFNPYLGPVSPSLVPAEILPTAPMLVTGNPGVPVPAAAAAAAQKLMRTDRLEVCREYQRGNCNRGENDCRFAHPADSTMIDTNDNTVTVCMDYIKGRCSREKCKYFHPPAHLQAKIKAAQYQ

| Molecule | KD [1] [nM] | Kd (MBNL1N, Cy3-labeled) [nM] |
| --- | --- | --- |
| CNC(=O)c1ccc2nc3ccccc3c(NCCCCNc3nc(N)nc(N)n3)c2c1 | 66000 ± 2000 |  |
| Nc1nc(N)nc(NCCCCNc2c3ccccc3nc3c(C(=O)NCCCNCCCNCCCNC(=O)c4cccc5c(NCCCCNc6nc(N)nc(N)n6)c6ccccc6nc45)cccc23)n1 | 318 ± 15 |  |
| GCUGCUGUUCGCUGCUG (structured_RNA, 3' TEG-biotin) [(CUG)4 TIRF construct] |  | 3.1 ± 0.1 |

From publication PMC3711446 (2013)
